Test results as given in paper PMC11870037 (Molecules, 2024).
Where two headings read alike, the source gives them in different places.

Legend:
hERG potassium channel = target: T1, hERG potassium channel (Homo sapiens, UniProt Q12809); experiment: hERG whole-cell patch clamp in HEK 293 cells; type: cell-based
T1 construct: expressed in transfected cells; host or cells: HEK 293

SERT = target: T2, SERT (Rattus norvegicus, UniProt P31652); experiment: biochemical; type: binding; details: for potency ratio among SERT, NET, and H3: ratio of binding Ki values for SERT
T2 construct: [3H]-paroxetine, rat cerebral cortex; from tissue; host or cells: rat cerebral cortex (membranes / crude synaptosomes)
T2 sequence (P31652 whole entry): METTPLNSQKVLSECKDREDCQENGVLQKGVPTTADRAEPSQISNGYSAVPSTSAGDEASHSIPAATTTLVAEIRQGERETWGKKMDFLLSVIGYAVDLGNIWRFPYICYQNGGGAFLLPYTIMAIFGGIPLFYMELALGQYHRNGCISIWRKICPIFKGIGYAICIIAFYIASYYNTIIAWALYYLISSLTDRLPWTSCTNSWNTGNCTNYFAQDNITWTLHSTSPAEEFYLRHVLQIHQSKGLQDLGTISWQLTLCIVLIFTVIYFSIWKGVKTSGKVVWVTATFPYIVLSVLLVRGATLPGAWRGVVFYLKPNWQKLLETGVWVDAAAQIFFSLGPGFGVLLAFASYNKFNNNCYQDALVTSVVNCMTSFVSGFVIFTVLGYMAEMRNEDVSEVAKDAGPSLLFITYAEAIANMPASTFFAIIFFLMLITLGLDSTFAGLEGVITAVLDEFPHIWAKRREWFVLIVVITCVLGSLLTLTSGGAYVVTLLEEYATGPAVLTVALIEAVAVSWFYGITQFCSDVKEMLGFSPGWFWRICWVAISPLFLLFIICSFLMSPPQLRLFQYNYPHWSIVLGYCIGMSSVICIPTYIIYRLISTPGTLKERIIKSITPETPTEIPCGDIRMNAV

NET [1] = target: T3, NET (Rattus norvegicus, UniProt Q63380); experiment: biochemical; details: Receptor Affinity Ki ± SEM NET, rat hippocampal membrane, [3H]nisoxetine; means ± SEM of three experiments
T3 sequence (Q63380 1-617): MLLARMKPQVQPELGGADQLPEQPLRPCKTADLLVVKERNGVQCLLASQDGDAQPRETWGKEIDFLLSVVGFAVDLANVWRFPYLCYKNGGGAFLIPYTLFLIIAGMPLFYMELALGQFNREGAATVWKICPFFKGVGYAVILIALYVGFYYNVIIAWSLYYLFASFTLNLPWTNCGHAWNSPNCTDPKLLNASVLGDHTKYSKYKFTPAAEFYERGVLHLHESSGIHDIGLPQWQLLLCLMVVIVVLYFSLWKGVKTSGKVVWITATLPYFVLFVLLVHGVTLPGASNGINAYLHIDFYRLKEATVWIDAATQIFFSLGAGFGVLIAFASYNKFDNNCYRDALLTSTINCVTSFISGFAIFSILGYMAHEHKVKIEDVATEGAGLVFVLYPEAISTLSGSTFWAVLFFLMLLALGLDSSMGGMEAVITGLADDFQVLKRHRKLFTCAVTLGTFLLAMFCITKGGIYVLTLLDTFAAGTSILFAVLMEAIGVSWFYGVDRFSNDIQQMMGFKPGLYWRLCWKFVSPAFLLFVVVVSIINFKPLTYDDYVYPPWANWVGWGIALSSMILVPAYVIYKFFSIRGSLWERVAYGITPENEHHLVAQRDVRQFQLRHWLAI

adrenergic α1 receptor = experiment: Adrenergic α1 receptor binding assay ([3H]prazosin); details: rat cerebral cortex, means ± SEM of three experiments, read-out: Receptor Affinity Ki ± SEM α1
female rats = details: females; cited from earlier work
mice [2] = experiment: Tail suspension test (TST); type: in vivo, mouse; details: oral, immobility duration
mice [3] = details: oral, immobility duration
NET [4] = target: T3, NET; experiment: Monoamine uptake transporter assay, [3H]NE uptake by NET; type: biochemical; details: 10 μM, n = 3
recombinant hH3R = recombinant hH3R (Homo sapiens, UniProt Q9Y5N1); experiment: H3 receptor intrinsic activity assay ([35S]GTPγS binding); type: biochemical; details: 10 μM, n = 3
Chain of recombinant hH3R (Q9Y5N1 whole entry): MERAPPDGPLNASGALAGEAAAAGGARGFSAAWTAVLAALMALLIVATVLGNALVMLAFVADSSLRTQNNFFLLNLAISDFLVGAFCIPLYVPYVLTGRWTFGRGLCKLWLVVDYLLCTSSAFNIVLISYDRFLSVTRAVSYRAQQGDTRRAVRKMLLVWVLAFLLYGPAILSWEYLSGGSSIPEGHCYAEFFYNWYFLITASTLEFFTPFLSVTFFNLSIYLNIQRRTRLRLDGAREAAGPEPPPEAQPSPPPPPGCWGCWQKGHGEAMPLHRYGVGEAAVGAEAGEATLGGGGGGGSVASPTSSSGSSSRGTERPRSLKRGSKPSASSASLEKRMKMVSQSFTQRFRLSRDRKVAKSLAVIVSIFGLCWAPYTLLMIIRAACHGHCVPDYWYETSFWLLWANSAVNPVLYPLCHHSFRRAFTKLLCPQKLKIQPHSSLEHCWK

[5] = rat cerebral cortex, [3H]-paroxetine, means ± SEM of three experiments, read-out: Receptor Affinity Ki ± SEM SERT

T1 sequence (Q12809 whole entry): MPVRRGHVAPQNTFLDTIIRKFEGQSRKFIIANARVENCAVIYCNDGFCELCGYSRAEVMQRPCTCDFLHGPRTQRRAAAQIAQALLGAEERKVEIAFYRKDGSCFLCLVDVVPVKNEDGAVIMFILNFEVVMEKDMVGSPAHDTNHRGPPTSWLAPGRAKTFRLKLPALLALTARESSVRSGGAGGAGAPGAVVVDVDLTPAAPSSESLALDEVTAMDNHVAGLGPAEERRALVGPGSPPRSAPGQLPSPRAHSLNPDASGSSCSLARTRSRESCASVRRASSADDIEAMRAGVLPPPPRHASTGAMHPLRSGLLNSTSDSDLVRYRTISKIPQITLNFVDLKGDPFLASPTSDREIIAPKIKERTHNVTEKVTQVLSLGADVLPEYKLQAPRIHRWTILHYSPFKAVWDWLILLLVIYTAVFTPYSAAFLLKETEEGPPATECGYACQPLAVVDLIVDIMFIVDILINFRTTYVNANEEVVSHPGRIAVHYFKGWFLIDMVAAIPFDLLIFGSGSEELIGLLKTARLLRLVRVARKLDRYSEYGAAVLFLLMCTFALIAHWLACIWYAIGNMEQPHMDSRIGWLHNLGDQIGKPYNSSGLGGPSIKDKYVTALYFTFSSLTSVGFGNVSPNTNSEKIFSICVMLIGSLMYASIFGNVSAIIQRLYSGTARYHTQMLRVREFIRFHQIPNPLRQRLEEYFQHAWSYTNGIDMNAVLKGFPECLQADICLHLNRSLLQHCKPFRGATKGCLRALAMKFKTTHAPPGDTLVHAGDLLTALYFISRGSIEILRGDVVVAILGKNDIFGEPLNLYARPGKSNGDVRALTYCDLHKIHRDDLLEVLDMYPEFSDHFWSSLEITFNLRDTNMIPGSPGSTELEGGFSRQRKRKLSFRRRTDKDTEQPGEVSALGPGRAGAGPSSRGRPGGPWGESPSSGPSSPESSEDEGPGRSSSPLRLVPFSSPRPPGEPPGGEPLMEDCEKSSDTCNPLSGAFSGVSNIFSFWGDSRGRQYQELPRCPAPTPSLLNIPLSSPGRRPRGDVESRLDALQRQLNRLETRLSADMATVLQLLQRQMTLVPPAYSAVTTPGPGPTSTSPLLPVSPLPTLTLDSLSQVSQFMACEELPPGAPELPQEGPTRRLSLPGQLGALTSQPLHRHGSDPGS

Compound	melting point	Ki (SERT; [5])	Ki (NET [1])	other results
CN(C)CCC(Oc1cccc2c1OCO2)c1ccc(OCCCN2CCCC2)cc1.O=C(O)C(=O)O (centres unmarked) [Compound 11a, 3-(benzo[d][1,3]dioxol-4-yloxy)-N,N-dimethyl-3-(4-(3-(pyrrolidin-1-yl)propoxy)phenyl)propan-1-amine oxalate]	138 to 140 °C	10.3 ± 0.9 nM	19.2 ± 2.3 nM	IC50 (hERG potassium channel): 819 ± 90.4 nM; potency ratio among SERT, NET, and H3 (SERT): < 10 fold; Ki (adrenergic α1 receptor): 428 ± 35.3 nM
CN(C)CCC(Oc1cccc2c1OCO2)c1ccc(OCCCN2CCOCC2)cc1.O=C(O)C(=O)O (centres unmarked) [Compound 11c, 3-(benzo[d][1,3]dioxol-4-yloxy)-N,N-dimethyl-3-(4-(3-morpholinopropoxy)phenyl)propan-1-amine oxalate]	169 to 170 °C	43.2 ± 3.8 nM	32.6 ± 2.7 nM	–
CN(C)CCC(Oc1cccc2c1OCO2)c1ccc(OCCCN2CCN(C)CC2)cc1.O=C(O)C(=O)O (centres unmarked) [Compound 11d, 3-(benzo[d][1,3]dioxol-4-yloxy)-N,N-dimethyl-3-(4-(3-(4-methylpiperazin-1-yl)propoxy)phenyl)propan-1-amine oxalate]	155 to 156 °C	52.3 ± 2.8 nM	86.8 ± 9.1 nM	–
CCN1CCN(CCCOc2ccc(C(CCN(C)C)Oc3cccc4c3OCO4)cc2)CC1.O=C(O)C(=O)O (centres unmarked) [Compound 11e, 3-(benzo[d][1,3]dioxol-4-yloxy)-3-(4-(3-(4-ethylpiperazin-1-yl)propoxy)phenyl)-N,N-dimethylpropan-1-amine oxalate]	187 to 189 °C	39.6 ± 3.3 nM	66.9 ± 5.1 nM	–
CC(C)N1CCN(CCCOc2ccc(C(CCN(C)C)Oc3cccc4c3OCO4)cc2)CC1.O=C(O)C(=O)O (centres unmarked) [Compound 11f, 3-(benzo[d][1,3]dioxol-4-yloxy)-3-(4-(3-(4-isopropylpiperazin-1-yl)propoxy)phenyl)-N,N-dimethylpropan-1-amine oxalate]	160 to 162 °C	35.7 ± 3.1 nM	57.9 ± 6.4 nM	–
CN(C)CCC(Oc1cccc2c1OCO2)c1ccc(OCCCN2CC3CCCC3C2)cc1.O=C(O)C(=O)O (centres unmarked) [Compound 11g, 3-(benzo[d][1,3]dioxol-4-yloxy)-3-(4-(3-(hexahydrocyclopenta[c]pyrrol-2(1H)-yl)propoxy)phenyl)-N,N-dimethylpropan-1-amine oxalate]	110 to 112 °C	31.3 ± 4 nM	48.2 ± 4.2 nM	–
CN(C)CCC(Oc1cccc2c1OCO2)c1cccc(OCCCN2CCCC2)c1.O=C(O)C(=O)O (centres unmarked) [Compound 11h, 3-(benzo[d][1,3]dioxol-4-yloxy)-N,N-dimethyl-3-(3-(3-(pyrrolidin-1-yl)propoxy)phenyl)propan-1-amine oxalate]	104 to 106 °C	192 ± 18.8 nM	144 ± 13.5 nM	–
CN(C)CCC(Oc1cccc2c1OCO2)c1cccc(OCCCN2CCCCC2)c1.O=C(O)C(=O)O (centres unmarked) [Compound 11i, 3-(benzo[d][1,3]dioxol-4-yloxy)-N,N-dimethyl-3-(3-(3-(piperidin-1-yl)propoxy)phenyl)propan-1-amine oxalate]	81 to 83 °C	236 ± 26.1 nM	105 ± 9.8 nM	–
CN(C)CCC(Oc1cccc2c1OCO2)c1cccc(OCCCN2CCOCC2)c1.O=C(O)C(=O)O (centres unmarked) [Compound 11j, 3-(benzo[d][1,3]dioxol-4-yloxy)-N,N-dimethyl-3-(3-(3-morpholinopropoxy)phenyl)propan-1-amine oxalate]	95 to 98 °C	465 ± 39.8 nM	153 ± 12.7 nM	–
CC(C)N1CCN(CCCOc2cccc(C(CCN(C)C)Oc3cccc4c3OCO4)c2)CC1.O=C(O)C(=O)O (centres unmarked) [Compound 11k, 3-(benzo[d][1,3]dioxol-4-yloxy)-3-(3-(3-(4-isopropylpiperazin-1-yl)propoxy)phenyl)-N,N-dimethylpropan-1-amine oxalate]	185 to 186 °C	163 ± 17.6 nM	111 ± 10.3 nM	–
CN(C)CCCOc1ccc(C(CCN(C)C)Oc2cccc3c2OCO3)cc1.O=C(O)C(=O)O (centres unmarked) [Compound 11l, 3-(benzo[d][1,3]dioxol-4-yloxy)-3-(4-(3-(dimethylamino)propoxy)phenyl)-N,N-dimethylpropan-1-amine oxalate]	121 to 122 °C	17.1 ± 1.6 nM	115 ± 12.3 nM	–
CCN(CC)CCCOc1ccc(C(CCN(C)C)Oc2cccc3c2OCO3)cc1.O=C(O)C(=O)O (centres unmarked) [Compound 11m, 3-(benzo[d][1,3]dioxol-4-yloxy)-3-(4-(3-(diethylamino)propoxy)phenyl)-N,N-dimethylpropan-1-amine oxalate]	98 to 100 °C	28.4 ± 11.3 nM	85.2 ± 9.1 nM	–
CN(C)CCC(Oc1cccc2c1OCO2)c1ccc(OCCN2CCCCC2)cc1.O=C(O)C(=O)O (centres unmarked) [Compound 11n, 3-(benzo[d][1,3]dioxol-4-yloxy)-N,N-dimethyl-3-(4-(2-(piperidin-1-yl)ethoxy)phenyl)propan-1-amine oxalate]	116 to 118 °C	26.1 ± 2.3 nM	37.3 ± 4.2 nM	–
CN(C)CCC(Oc1cccc2c1OCO2)c1ccc(OCCCCN2CCCCC2)cc1.O=C(O)C(=O)O (centres unmarked) [Compound 11o, 3-(benzo[d][1,3]dioxol-4-yloxy)-N,N-dimethyl-3-(4-(4-(piperidin-1-yl)butoxy)phenyl)propan-1-amine oxalate]	169 to 171 °C	49.2 ± 4.8 nM	64.6 ± 5.5 nM	–
CC1CCCCN1CCCOc1ccc(C(CCN(C)C)Oc2cccc3c2OCO3)cc1.O=C(O)C(=O)O (centres unmarked) [Compound 11p, 3-(benzo[d][1,3]dioxol-4-yloxy)-N,N-dimethyl-3-(4-(3-(2-methylpiperidin-1-yl)propoxy)phenyl)propan-1-amine oxalate]	129 to 131 °C	20.6 ± 1.9 nM	35.4 ± 3.2 nM	–
CC1CCCN(CCCOc2ccc(C(CCN(C)C)Oc3cccc4c3OCO4)cc2)C1.O=C(O)C(=O)O (centres unmarked) [Compound 11q, 3-(benzo[d][1,3]dioxol-4-yloxy)-N,N-dimethyl-3-(4-(3-(3-methylpiperidin-1-yl)propoxy)phenyl)propan-1-amine oxalate]	130 to 132 °C	12.1 ± 1.6 nM	20.7 ± 2.1 nM	IC50 (hERG potassium channel): 780 ± 68.5 nM; potency ratio among SERT, NET, and H3 (SERT): < 10 fold; Ki (adrenergic α1 receptor): 307 ± 28.1 nM
CC1CCN(CCCOc2ccc(C(CCN(C)C)Oc3cccc4c3OCO4)cc2)CC1.O=C(O)C(=O)O (centres unmarked) [Compound 11r, 3-(benzo[d][1,3]dioxol-4-yloxy)-N,N-dimethyl-3-(4-(3-(4-methylpiperidin-1-yl)propoxy)phenyl)propan-1-amine oxalate]	126 to 128 °C	27.1 ± 1.6 nM	38.3 ± 3.5 nM	–
CC1CC(C)CN(CCCOc2ccc(C(CCN(C)C)Oc3cccc4c3OCO4)cc2)C1.O=C(O)C(=O)O (centres unmarked) [Compound 11s, 3-(benzo[d][1,3]dioxol-4-yloxy)-3-(4-(3-(3,5-dimethylpiperidin-1-yl)propoxy)phenyl)-N,N-dimethylpropan-1-amine oxalate]	140 to 142 °C	30.3 ± 2.6 nM	25.1 ± 2.8 nM	–
CN(C)CCC(Oc1cccc2c1OCO2)c1ccc(OCCCN2CCC(F)CC2)cc1.O=C(O)C(=O)O (centres unmarked) [Compound 11t, 3-(benzo[d][1,3]dioxol-4-yloxy)-3-(4-(3-(4-fluoropiperidin-1-yl)propoxy)phenyl)-N,N-dimethylpropan-1-amine oxalate]	134 to 136 °C	34.2 ± 2.8 nM	42.5 ± 4.6 nM	–
CN(C)CCC(Oc1cccc2c1OCO2)c1ccc(OCCCN2CCC(Cl)CC2)cc1.O=C(O)C(=O)O (centres unmarked) [Compound 11u, 3-(benzo[d][1,3]dioxol-4-yloxy)-3-(4-(3-(4-chloropiperidin-1-yl)propoxy)phenyl)-N,N-dimethylpropan-1-amine oxalate]	145 to 146 °C	39.5 ± 4 nM	50.2 ± 4.9 nM	–
CN(C)CCC(Oc1cccc2c1OCO2)c1ccc(OCCCN2CCC(C#N)CC2)cc1.O=C(O)C(=O)O (centres unmarked) [Compound 11v, 1-(3-(4-(1-(benzo[d][1,3]dioxol-4-yloxy)-3-(dimethylamino)propyl)phenoxy)propyl)piperidine-4-carbonitrile oxalate]	148 to 151 °C	60.5 ± 5.7 nM	48.6 ± 6.4 nM	–
CNCC[C@H](Oc1cccc2ccccc12)c1cccs1 [Duloxetine, reference compound]	–	–	–	LD50 (female rats): 279 mg/kg; minimal effective dose (MED) in TST (mice [2]): 16 mg/kg; minimal effective dose (MED) in FST (mice [3]): 16 mg/kg; Ki (adrenergic α1 receptor): 1010 ± 97.8 nM
CNCCC(Oc1ccccc1OC)c1ccccc1 (centres unmarked) [Nisoxetine, reference compound]	–	–	–	inhibition at 10 µM (NET [4]): 99.8 ± 1.9%
Clc1ccc(CCCOCCCN2CCCCC2)cc1 [Pitolisant, reference compound]	–	–	> 1000 nM	Ki (SERT; Receptor Affinity Ki ± SEM SERT): > 1000 nM; inhibition at 10 µM (recombinant hH3R): 99.3 ± 2.5%
